Measurements reported in PMC4704150 (Antimicrobial Agents and Chemotherapy, 2015).
Read-outs that look alike come from different tables or passages of the source. Marks after values point to notes of the source that are not given here.

Legend:
[1] = tested on: genotypes other than genotype 1; details: cited from earlier work
[2] = Drug-drug interaction study, 2D regimen with digoxin; assay type: in vivo, human healthy volunteers; details: for change in the Cmax and AUC values upon coadministration: 2D regimen + digoxin vs 2D regimen alone
[3] = Drug-drug interaction study, 2D regimen with duloxetine, plasma pharmacokinetics; assay type: in vivo, human healthy volunteers; details: for change in the Cmax and AUC values upon coadministration: duloxetine + 2D regimen vs alone
[4] = assay type: in vivo, human healthy volunteers; details: for change in the Cmax and AUC values in the presence of the 2D regimen: except escitalopram AUC
[5] = human, in vivo
[6] = in vitro; cited from earlier work
[7] = Drug-drug interaction study, 2D regimen with rosuvastatin; assay type: in vivo, human healthy volunteers; details: for increase in AUC upon coadministration / increase in Cmax upon coadministration: rosuvastatin + 2D regimen vs alone
[8] = Drug-drug interaction study, 2D regimen with pravastatin; assay type: in vivo, human healthy volunteers; details: for increase in AUC upon coadministration / increase in Cmax upon coadministration: pravastatin + 2D regimen vs alone
[9] = Drug-drug interaction study, 2D regimen with omeprazole; assay type: in vivo, human healthy volunteers; details: for change in the Cmax and AUC values upon coadministration: 2D regimen + omeprazole vs 2D regimen alone
[10] = Drug-drug interaction study, 2D regimen with warfarin; assay type: in vivo, human healthy volunteers; details: for change in the Cmax and AUC values upon coadministration: warfarin + 2D regimen vs alone; for Cmax, Coadministration / AUC (AUC∞), Alone: warfarin study, geometric mean (%CV); for Cmax, Coadministration: warfarin + 2D regimen; for AUC (AUC∞), Alone: warfarin without 2D regimen
[11] = Drug-drug interaction study, 2D regimen with ketoconazole; assay type: in vivo, human healthy volunteers; details: ketoconazole + 2D regimen vs alone
[12] = assay type: in vivo, human healthy volunteers; details: coadministration vs alone; except in the ketoconazole study
[13] = tested on: HCV subtypes 1a, 1b, 2a, 3a, 4a, and 6a; details: cited from earlier work
[14] = tested on: breast cancer resistance protein (BCRP); details: in vitro, at clinically relevant concentrations; cited from earlier work
P-glycoprotein (P-gp) = details: in vitro, at clinically relevant concentrations; cited from earlier work
[15] = cited from earlier work
[16] = tested on: organic anion-transporting polypeptide 1B1/B3 (OATP1B1/B3); details: in vitro, at clinically relevant concentrations; cited from earlier work
[17] = digoxin + 2D regimen vs digoxin alone
[18] = escitalopram + 2D regimen vs escitalopram alone
[19] = 2D regimen + rosuvastatin vs 2D regimen alone
[20] = omeprazole + 2D regimen vs omeprazole alone
[21] = escitalopram study, escitalopram + 2D regimen, geometric mean (%CV)

## COc1c(-c2ccc3cc(NS(C)(=O)=O)ccc3c2)cc(-n2ccc(=O)[nH]c2=O)cc1C(C)(C)C [Dasabuvir, dasabuvir]
[1]
  activity against HCV genotypes other than genotype 1: not active

## C[C@H]1O[C@@H](O[C@H]2[C@@H](O)C[C@H](O[C@H]3[C@@H](O)C[C@H](O[C@H]4CC[C@@]5(C)[C@H](CC[C@@H]6[C@@H]5C[C@@H](O)[C@]5(C)[C@@H](C7=CC(=O)OC7)CC[C@]65O)C4)O[C@@H]3C)O[C@@H]2C)C[C@H](O)[C@@H]1O [Digoxin, digoxin]
[2]; [17]
  increase in AUC upon coadministration: 36%
  increase in C24 upon coadministration: 24%
  increase in Cmax upon coadministration: 58%
[2]; digoxin + 2D regimen vs digoxin alone, urine
  ratio of fraction excreted (fraction of unchanged drug eliminated in the urine): 1.01
[2]; human, plasma, 0.5 mg
  AUC(0-inf): 27.8 ng·h/mL

## CNCC[C@H](Oc1cccc2ccccc12)c1cccs1 [Duloxetine, duloxetine]
[3]
  change in the Cmax and AUC values upon coadministration: ≤ 20%
[3]; human, plasma, oral, 60 mg
  AUC(0-inf): 648 ng·h/mL

## CN(C)CCC[C@@]1(c2ccc(F)cc2)OCc2cc(C#N)ccc21 [Escitalopram, escitalopram]
[4]; [18]
  decrease in AUC in the presence of the 2D regimen: 25%
  change in the Cmax and AUC values in the presence of the 2D regimen: ≤ 20%
[4]; human, plasma, 10 mg
  AUC(0-inf): 262 ng·h/mL

## C=CCN1CC[C@]23c4c5ccc(O)c4O[C@H]2C(=O)CC[C@@]3(O)[C@H]1C5 [Naloxone, naloxone]
[5]
  AUC (AUCtau, AUC24), dose normalized, Alone: 139 (53)^d^,^j pg · h/ml/mg
  AUC (AUCtau, AUC24), dose normalized, Coadministration: 154 (76)^d^,^j pg · h/ml/mg
  Cmax, dose normalized, Alone: 59.0 (44)^i pg/ml/mg
  Cmax, dose normalized, Coadministration: 58.1 (61)^i pg/ml/mg
  change in the Cmax and AUC values upon coadministration: ≤ 11%

## COC(=O)N[C@H](C(=O)N1CCC[C@H]1C(=O)Nc1ccc([C@@H]2CC[C@@H](c3ccc(NC(=O)[C@@H]4CCCN4C(=O)[C@@H](NC(=O)OC)C(C)C)cc3)N2c2ccc(C(C)(C)C)cc2)cc1)C(C)C [Ombitasvir, ombitasvir]
[6]
  metabolic pathway: predominantly metabolized by amide hydrolysis followed by oxidative metabolism
[7]; [19]
  change in Cmax and AUC values upon coadministration: ≤ 12%
  lower Cmax upon coadministration: 12%
[8]; 2D regimen + pravastatin vs 2D regimen alone
  decrease in Cmax or AUC value upon coadministration: ≤ 6%
[9]
  change in the Cmax and AUC values upon coadministration: ≤ 7%
[10]
  change in the Cmax and AUC values upon coadministration: ≤ 15%
[11]
  decrease in Cmax upon coadministration: 2%
  increase in AUC upon coadministration: 26%
[2]
  change in the Cmax and AUC values upon coadministration: ≤ 15%
[3]
  change in the Cmax and AUC values upon coadministration: ≤ 10%
[12]
  Tmax and t1/2 (where calculated): not affected in a meaningful way
[13]
  in vitro antiviral activity: show in vitro antiviral activity

## COc1ccc2[nH]c([S+]([O-])Cc3ncc(C)c(OC)c3C)nc2c1 (stereo not drawn) [Omeprazole, omeprazole]
[9]; human, plasma, 40 mg
  AUC(0-t): 1170 ng·h/mL
[9]; [20]
  decrease in exposures upon coadministration: approximately 50%
  reduction in AUC in the presence of the 2D regimen: 54%
  reduction in Cmax in the presence of the 2D regimen: 52%

## Cc1cnc(C(=O)N[C@H]2CCCCC/C=C\[C@@H]3C[C@@]3(C(=O)NS(=O)(=O)C3CC3)NC(=O)[C@@H]3C[C@@H](Oc4nc5ccccc5c5ccccc45)CN3C2=O)cn1 [Paritaprevir, paritaprevir]
[14]
  BCRP inhibition: potential inhibitors
[6]
  metabolic pathway: primarily metabolized by cytochrome P450 3A (CYP3A)
[7]
  increase in AUC upon coadministration: 22%
  increase in Cmax upon coadministration: 40%
P-glycoprotein (P-gp)
  P-gp inhibition: potential inhibitors
[8]
  increase in AUC upon coadministration: 33%
  increase in Cmax upon coadministration: 44%
[9]
  change in the Cmax and AUC values upon coadministration: ≤ 7%
[10]
  change in the Cmax and AUC values upon coadministration: ≤ 15%
[11]
  increase in AUC upon coadministration: 116%
  increase in Cmax upon coadministration: 72%
  mean t1/2, fold longer upon coadministration: more than 2 fold
[11]; Cmax and AUC
  increase in exposures upon coadministration: up to 116%
[2]
  change in the Cmax and AUC values upon coadministration: ≤ 15%
[15]; paritaprevir 200 mg
  exposures higher than those observed with the 150-mg paritaprevir dose: approximately 93%
[15]; paritaprevir 250 mg
  exposures higher than those observed with the 150-mg paritaprevir dose: ~250%
[16]
  OATP1B1/B3 inhibition: inhibitor
[3]
  change in the Cmax and AUC values upon coadministration: ≤ 10%
[12]
  Tmax and t1/2 (where calculated): not affected in a meaningful way
[13]
  in vitro antiviral activity: show in vitro antiviral activity

## CC[C@H](C)C(=O)O[C@H]1C[C@H](O)C=C2C=C[C@H](C)[C@H](CC[C@@H](O)C[C@@H](O)CC(=O)O)[C@H]21 [Pravastatin, pravastatin]
[8]
  increase in AUC upon coadministration: 76%
  increase in Cmax upon coadministration: 43%

## CC(=O)C[C@H](c1ccccc1)c1c(O)c2ccccc2oc1=O [R-Warfarin, R-warfarin]
[10]
  Cmax, Coadministration: 255 (16) ng/ml
  AUC (AUC∞), Alone: 19,900 (21)^b ng · h/ml

## CC(C)c1nc(CN(C)C(=O)N[C@H](C(=O)N[C@@H](Cc2ccccc2)C[C@H](O)[C@H](Cc2ccccc2)NC(=O)OCc2cncs2)C(C)C)cs1 [Ritonavir, ritonavir]
[6]
  metabolic pathway: primarily metabolized by cytochrome P450 3A (CYP3A)
[7]; [19]
  change in Cmax and AUC values upon coadministration: ≤ 12%
[8]
  increase in AUC upon coadministration: 37%
  increase in Cmax upon coadministration: 37%
[9]
  change in the Cmax and AUC values upon coadministration: ≤ 7%
[10]
  change in the Cmax and AUC values upon coadministration: ≤ 15%
[2]
  change in the Cmax and AUC values upon coadministration: ≤ 15%
[3]
  change in the Cmax and AUC values upon coadministration: ≤ 10%
[12]
  Tmax and t1/2 (where calculated): not affected in a meaningful way

## CC(C)c1nc(N(C)S(C)(=O)=O)nc(-c2ccc(F)cc2)c1/C=C/[C@@H](O)C[C@@H](O)CC(=O)O [Rosuvastatin, rosuvastatin]
[7]
  increase in AUC upon coadministration: 33%
  increase in Cmax upon coadministration: 161%
[7]; rosuvastatin + 2D regimen vs rosuvastatin alone
  increase in exposures upon coadministration: ≤ 161%

## CNCCC[C@@]1(c2ccc(F)cc2)OCc2cc(C#N)ccc21 [S-Desmethylcitalopram, S-desmethylcitalopram]
[4]; [18]
  change in the Cmax and AUC values in the presence of the 2D regimen: ≤ 20%
[4]; [21]
  AUC (AUC∞), Coadministration: 167 (11)^b ng · h/ml
  Cmax, Coadministration: 1.77 (26) ng/ml
[4]; escitalopram study, escitalopram without 2D regimen, geometric mean (%CV)
  AUC (AUC∞), Alone: 153 (16)^b ng · h/ml

## CC(=O)C[C@@H](c1ccccc1)c1c(O)c2ccccc2oc1=O [S-Warfarin, S-warfarin]
[10]
  change in the Cmax and AUC values upon coadministration: ≤ 15%
  Cmax, Coadministration: 240 (14) ng/ml
  AUC (AUC∞), Alone: 13,000 (25)^b ng · h/ml
